Measured values published in paper PMC5349910, “Discovery of BPR1K871, a quinazoline based, multi-kinase inhibitor for the treatment of AML and solid tumors: Rational design, synthesis, in vitro and in vivo evaluation” (Oncotarget, 2016).
≈ marks a conversion by molar mass, not a printed value. Where “and” joins values, the source holds several entries; their conditions need not be identical. Equal values may be shown once. Read-outs that look alike come from different tables or passages of the source.

Columns and labels:
FLT3 [1] = target: T1, FLT3 (Homo sapiens, UniProt P36888); experiment: FLT3 kinase inhibition assay (Kinase-Glo); type: biochemical; details: for IC50: mean of at least two independent experiments, within ±15%; for selectivity for FLT3 over AURKA: from enzyme IC50
T1 construct: FLT3 kinase catalytic domain (residues Tyr567-Ser993); made in house; host or cells: Sf9 insect cells (baculovirus, pBac-PAK8-GST-FLT3-KD)
T1 sequence (P36888 567-993): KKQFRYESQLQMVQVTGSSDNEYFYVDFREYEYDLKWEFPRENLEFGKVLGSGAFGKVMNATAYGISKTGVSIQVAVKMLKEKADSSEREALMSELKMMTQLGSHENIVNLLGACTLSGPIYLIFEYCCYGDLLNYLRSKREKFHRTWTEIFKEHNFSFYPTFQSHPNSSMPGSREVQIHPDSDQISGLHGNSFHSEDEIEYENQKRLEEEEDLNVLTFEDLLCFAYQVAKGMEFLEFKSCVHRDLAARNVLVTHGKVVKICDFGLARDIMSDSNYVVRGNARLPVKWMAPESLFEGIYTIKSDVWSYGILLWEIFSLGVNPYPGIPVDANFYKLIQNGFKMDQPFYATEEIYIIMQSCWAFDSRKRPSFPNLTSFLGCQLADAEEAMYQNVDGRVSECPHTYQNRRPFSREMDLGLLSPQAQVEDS
Method: The FLT3 assay was conducted as previously described. Briefly, GST-FLT3-KD^WT containing the FLT3 kinase catalytic domain (residues Tyr567-Ser993) was expressed in Sf9 insect cells transfected with the baculovirus containing pBac-PAK8-GST-FLT3-KD plasmid.
(§1) Following incubation, 50 μL Kinase-Glo Plus Reagent (Promega, Madison, WI, USA) was added, and the mixture was incubated at 25°C for 20 min. A 70 μL aliquot of each reaction mixture was transferred to a black microliter plate, and luminescence was measured on a Wallac Vector 1420 multilabel counter (PerkinElmer, Shelton, CT, USA).

AURKA = target: T2, AURKA (Homo sapiens, UniProt O14965); experiment: AURKA inhibition assay (Kinase-Glo); type: biochemical; details: for IC50: mean of at least two independent experiments, within ±15%; for selectivity for AURKA over FLT3: from enzyme IC50
T2 construct: recombinant GST-AURKA (residues Ser123-Ser401) containing the kinase domain; GST (N); made in house; host or cells: Sf9 insect cells
T2 sequence (O14965 123-401): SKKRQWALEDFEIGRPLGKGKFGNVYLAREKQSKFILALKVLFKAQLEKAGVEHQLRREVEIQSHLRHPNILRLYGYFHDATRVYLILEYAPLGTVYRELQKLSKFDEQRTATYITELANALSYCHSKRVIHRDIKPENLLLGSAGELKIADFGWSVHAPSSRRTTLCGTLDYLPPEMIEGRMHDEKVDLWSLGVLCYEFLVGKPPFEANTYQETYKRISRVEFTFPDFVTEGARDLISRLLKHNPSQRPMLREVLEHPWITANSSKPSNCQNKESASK
Method: AURKA assay was conducted as previously described. Briefly, the recombinant GST-AURKA (residues Ser123-Ser401) containing the kinase domain was expressed in Sf9 insect cells.
Following incubation, 50 μL Kinase-Glo Plus Reagent (Promega, Madison, WI, USA) was added, and the mixture was incubated at 25°C for 20 min.

[2] = test system: Detroit 551 (human normal skin fibroblast cells); experiment: MTS cell viability assay, Detroit-551; type: cell-based; details: 72 h
Method: The MTS cell viability assay was conducted as previously described. The MOLM-13 human leukemia cell line was obtained from the German Resource Centre for Biological Material (DSMZ, Braunschweig, Germany); the MV4-11 cell line was purchased from the American Type Culture Collection (ATCC, Manassas, VA, USA). Both the leukemia cell lines were maintained in RPMI 1640 medium supplemented with 10% fetal bovine serum (FBS), 10 UmL^-1 penicillin, and […] streptomycin at 37°C and 5% CO2. The Detroit-551, COLO205, and Mia-PaCa2 cell lines were purchased from the American Type Culture Collection (ATCC, Manassas, VA, USA) and cultured according to instructions of ATCC. To determine cell viability after drug treatment, assay for MOLM-13 and MV4-11 was performed by seeding 10000 cells per well in a 96-well culture plate. Detroit-551, COLO205, and Mia-PaCa2 were seeded at density of 2500, 4000, and 3750 cells per well, respectively. After 16 h, cells were then treated with vehicle or various concentrations of compound in medium for 72 h. Viable cells were quantified using the MTS method (Promega, Madison, WI, USA) according to the manufacturer's recommended protocol. Results were determined by measuring the absorbance at 490 nm using a plate reader (Victor2; PerkinElmer, Shelton, CT, USA).

AURKB = AURKB (Homo sapiens, UniProt Q96GD4); experiment: AURKB inhibition assay (Kinase-Glo); type: biochemical; parameters: full length His-tagged Aurora-B (residues M1∼A344); His; purchased Invitrogen PV6130; details: 500 nM; duplicate determination
Sequence of AURKB (Q96GD4 whole entry): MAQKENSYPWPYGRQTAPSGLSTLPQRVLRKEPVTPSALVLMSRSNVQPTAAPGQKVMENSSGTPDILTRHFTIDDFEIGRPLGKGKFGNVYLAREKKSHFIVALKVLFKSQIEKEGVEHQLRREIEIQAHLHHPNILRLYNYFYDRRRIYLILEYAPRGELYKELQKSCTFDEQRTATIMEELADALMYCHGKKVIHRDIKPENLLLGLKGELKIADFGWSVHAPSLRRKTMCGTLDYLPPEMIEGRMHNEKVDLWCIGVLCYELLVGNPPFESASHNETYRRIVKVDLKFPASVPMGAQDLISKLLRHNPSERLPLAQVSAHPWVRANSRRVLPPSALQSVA
Method: AURKB assay was conducted as previously described. Briefly, the recombinant full length His-tagged Aurora-B (residues M1∼A344) was purchased from Invitrogen (Catalog number: PV6130). The kinase assay was carried out in 96-well plates with the tested compound in reaction solution (50 mM Tris-HCl pH 7.4, 10 mM NaCl, 10 mM MgCl2, 0.01% BSA, 5 mM ATP, 1 mM DTT and 15 mM tetra(LRRASLG) peptide, and 40 ng recombinant Aurora-B) at 30°C for 180 min.
as §1

MOLM-13 cells = experiment: MTS cell viability assay, MOLM-13; type: cell-based, human; details: read-out: MOLM-13 EC50
Method: (§2) The MTS cell viability assay was conducted as previously described. The MOLM-13 human leukemia cell line was obtained from the German Resource Centre for Biological Material (DSMZ, Braunschweig, Germany); the MV4-11 cell line was purchased from the American Type Culture Collection (ATCC, Manassas, VA, USA). […] To determine cell viability after drug treatment, assay for MOLM-13 and MV4-11 was performed by seeding 10000 cells per well in a 96-well culture plate. […] After 16 h, cells were then treated with vehicle or various concentrations of compound in medium for 72 h. Viable cells were quantified using the MTS method (Promega, Madison, WI, USA) according to the manufacturer's recommended protocol. Results were determined by measuring the absorbance at 490 nm using a plate reader (Victor2; PerkinElmer, Shelton, CT, USA).

MV4-11 cells = experiment: MTS cell viability assay, MV4-11; type: cell-based, human; details: read-out: MV4-11 EC50
Method: as §2

HCC827 cells = experiment: Anti-proliferative activity, HCC827; type: cell-based; details: Homo sapiens
HCT-116 cells = experiment: Anti-proliferative activity, HCT-116; type: cell-based, human
RS4-11 cells = experiment: Anti-proliferative activity, RS4-11; type: cell-based; details: Homo sapiens
H1975 cells = experiment: Anti-proliferative activity, H1975; type: cell-based; details: Homo sapiens
U937 cells = experiment: Anti-proliferative activity, U937; type: cell-based; details: Homo sapiens, U-937, read-out: U937 EC50
K562 cells = experiment: Anti-proliferative activity, K562; type: cell-based; details: Homo sapiens, K562, read-out: K562 EC50
H2228 cells = experiment: Anti-proliferative activity, H2228; type: cell-based; details: Homo sapiens
CL-97 cells = experiment: Anti-proliferative activity, CL-97; type: cell-based, human
Aqueous solubility = type: physicochemical; details: in water
Mia-PaCa2 cells = experiment: Anti-proliferative activity, Mia-PaCa2; type: cell-based, human; details: Homo sapiens, MIA PaCa-2, Human Pancreatic Cancer; supplement values ± SEM
FLT3 [3] = target: T1, FLT3; parameters: method as in PMID 20550212, PMID 23172777, PMID 24665000; details: previously reported leads 1, 2, 3; cited from earlier work
[4] = Homo sapiens, MOLM-13, 72 h, MTS, 72 h, AML-FLT3-ITD (heterozygous), supplement values ± SEM
[5] = Homo sapiens, MV4-11, 72 h, MTS, 72 h, AML-FLT3-ITD (homozygous), supplement values ± SEM

Row | SMILES | IC50 (FLT3 [1]) | IC50 (AURKA) | inhibition at 0.5 µM (AURKB) | EC50 (MOLM-13 cells; [4]) | EC50 (MV4-11 cells; [5]) | EC50 [2] | further results
1 | CO[C@@H]1[C@H](N(C)C(=O)c2ccccc2)C[C@H]2O[C@]1(C)n1c3ccccc3c3c4c(c5c6ccccc6n2c5c31)C(=O)NC4 [PKC412] | – | – | – | – | – | – | EC50 (HCC827 cells; HCC827, NSCLC-EGFR L858R, supplement values ± SEM, read-out: HCC827 EC50): 687 nM
2 | CCN(CCCOc1ccc2c(Nc3cc(CC(=O)Nc4cccc(F)c4)n[nH]3)ncnc2c1)CCOP(=O)(O)O [Barasertib] | – | – | – | – | – | – | EC50 (HCT-116 cells; Homo sapiens, HCT-116, read-out: HCT-116 EC50): 67 nM; EC50 (MOLM-13 cells; Homo sapiens, MOLM-13, 72 h): 42 nM; EC50 (RS4-11 cells; RS4-11, read-out: RS4-11 EC50): 11 nM; EC50 (H1975 cells; NCI-H1975, read-out: H1975 EC50): 390 nM; EC50 (U937 cells): > 10000 nM; EC50 (K562 cells): > 10000 nM; EC50 (MV4-11 cells; Homo sapiens, MV4-11, 72 h): 17 nM; EC50 (H2228 cells; NCI-H2228, read-out: H2228 EC50): 340 nM; EC50 (HCC827 cells; HCC827, read-out: HCC827 EC50): 127 nM; EC50 (CL-97 cells; Homo sapiens, CL97, read-out: CL-97 EC50): 454 nM
3 | CN(C)CCCOc1ccc2c(NCCc3cnc(NC(=O)Nc4ccccc4)s3)ncnc2c1 [Compound 11] | 94 nM | – | 75.8% | 8 nM | 21.4 nM | 10900 nM | –
4 | CNC(=O)c1cc(Oc2ccc(NC(=O)Nc3ccc(Cl)c(C(F)(F)F)c3)cc2)ccn1 [Sorafenib] | – | – | – | – | – | – | EC50 (HCT-116 cells; HCT-116, Human Colon Cancer, supplement values ± SEM, read-out: HCT-116 EC50): 8800 nM; EC50 (RS4-11 cells; RS4-11, ALL-wt-FLT3 (homozygous), supplement values ± SEM, read-out: RS4-11 EC50): 9300 nM; EC50 (H1975 cells; NCI-H1975, NSCLC-EGFR LR/TM, supplement values ± SEM, read-out: H1975 EC50): 7010 nM; EC50 (H2228 cells; NCI-H2228, NSCLC-ALK, supplement values ± SEM, read-out: H2228 EC50): 7970 nM; EC50 (CL-97 cells; CL97, Human Lung Cancer, supplement values ± SEM, read-out: CL-97 EC50): 7050 nM; EC50 (Mia-PaCa2 cells): 7790 nM
5 | O=C(Nc1ccccc1)Nc1ccc(CCNc2ncnc3oc(-c4ccccc4)c(-c4ccccc4)c23)cc1 [Compound 1] | – | – | – | – | – | – | IC50 (FLT3 [3]): > 10000 nM
6 | COc1cc2ncnc(NCCc3ccc(NC(=O)Nc4ccccc4)cc3)c2cc1OC [Compound 2] | – | – | – | – | – | – | IC50 (FLT3 [3]): > 10000 nM
7 | COc1cc2ncnc(NCCc3cnc(NC(=O)Nc4cccc(Cl)c4)s3)c2cc1OC [Compound 4] | 127 nM | 5 nM and 4.9 nM | 100% | ~40 nM | ~40 nM | 9100 nM | EC50 (MOLM-13 cells; MTS, 72 h, AML-FLT3-ITD (heterozygous), supplement values ± SEM): 20 nM; EC50 (MV4-11 cells; MTS, 72 h, AML-FLT3-ITD (homozygous), supplement values ± SEM): 43 nM; solubility (Aqueous solubility): 0.452 µg/mL (≈ 0.932 µM)
8 | Cc1ccc(Cl)cc1NC(=O)Nc1ncc(CCNc2ncnc3cc(OCCCN(C)C)ccc23)s1 [Compound 14] | 20.5 nM | 131 nM | 63% | 12.7 nM | 3.3 nM | 3800 nM | selectivity for FLT3 over AURKA (FLT3 [1]): ~8 fold

Second part, led by results:

Row | IC50 (FLT3 [1]) | IC50 (AURKA) | inhibition at 0.5 µM (AURKB) | EC50 (MOLM-13 cells; [4]) | EC50 (MV4-11 cells; [5]) | SMILES | EC50 [2] | further results
9 | 98 nM | 19 nM | 90% | 12.4 nM | 10.9 nM | COc1cccc(NC(=O)Nc2ncc(CCNc3ncnc4cc(OCCCN(C)C)ccc34)s2)c1 [Compound 12] | 9800 nM | –
10 | 16 nM | 464 nM | 48.6% | 6.7 nM | 2.1 nM | COc1ccc(Cl)cc1NC(=O)Nc1ncc(CCNc2ncnc3cc(OCCCN(C)C)ccc23)s1 [Compound 13] | 5300 nM | selectivity for FLT3 over AURKA (FLT3 [1]): 30 fold
11 | 1410 nM | 15 nM | 92% | 69 nM | 65 nM | O=C(Nc1cccc(Cl)c1)Nc1ncc(CCNc2ncnc3ccccc23)s1 [Compound 5] | 6600 nM | selectivity for AURKA over FLT3 (AURKA): 100 fold
12 | 103 nM | 11 nM | 85.9% | 8 nM | 9.5 nM | COCCOc1ccc2c(NCCc3cnc(NC(=O)Nc4cccc(Cl)c4)s3)ncnc2c1 [Compound 8] | 2900 nM | solubility (Aqueous solubility): 0.107 µg/mL (≈ 0.214 µM)
13 | 1290 nM | 10 nM | 42% | 412 nM | 342 nM | COCCOc1ccc2ncnc(NCCc3cnc(NC(=O)Nc4cccc(Cl)c4)s3)c2c1 [Compound 7] | 8000 nM | selectivity for AURKA over FLT3 (AURKA): 100 fold
14 | 98 nM | 6 nM | 70.4% | 90 nM | 102 nM | COCCOc1cc2ncnc(NCCc3cnc(NC(=O)Nc4cccc(Cl)c4)s3)c2cc1OCCOC [Compound 6] | 3500 nM | –
15 | 58 nM | 17 nM | 90.1% | 40 nM | 57 nM | CN(C)CCOc1ccc2c(NCCc3cnc(NC(=O)Nc4cccc(Cl)c4)s3)ncnc2c1 [Compound 9] | 3400 nM | –
